Article PMC12133000 (PLOS One, 2025)
Like-named read-outs stand apart in the source and are kept apart here.

Key:
[1] = tested on: rat liver microsomes (RLMs); assay: EGFR TKI screening: rivaroxaban metabolite M-2 formation in RLM incubation; type: in vitro ADME
Procedure: The system was preincubated at 37 °C for 5 min, followed by the addition of NADPH (1 mM) to initiate the reaction. After incubating for an additional 30 min, a 200 μL of acetonitrile solution containing 200 ng/mL midazolam was introduced. The mixture was vortexed for 30 s, centrifuged at 13000 rpm for 5 min, and the supernatant was removed. Three samples were collected for each group.

[2] = tested on: CYP2J2; settings: cited from earlier work; for inhibition of rivaroxaban hydroxylation by CYP2J2: in vitro ref 24
[3] = target: rat liver microsomes (RLMs); assay: Inhibitory mechanism (Ki, αKi, Lineweaver-Burk plots) in RLMs; settings: read-out: inhibitory constant (Ki), substrate rivaroxaban
Source text: Ki and αKi values were computed, and the inhibitory mechanism was examined using Lineweaver–Burk plots.

[4] = patients on rivaroxaban, combination with clarithromycin ref 33; cited from earlier work
[5] = tested on: P-gp; set-up: method as in PMID 35174529; settings: in vitro, combination with rivaroxaban ref 21; read-out: IC50 (inhibitory properties of TKIs on DOACs, P-gp mediated); cited from earlier work
[6] = tested on: CYP3A4; settings: in vitro ref 25; cited from earlier work
[7] = combination with TKI ref 25; cited from earlier work

In the case of `C=CC(=O)Nc1cccc(Oc2nc(Nc3ccc(N4CCN(C)CC4)c(F)c3)nc3[nH]ccc23)c1` [avitinib, Avitinib], the “ratio of the metabolite concentration relative to the control” value ([1]; 100 μM EGFR TKI, 0.5 mg/mL RLMs, rivaroxaban metabolite M-2, average) is given as 5.6%, the “effect on rivaroxaban metabolism (metabolite generation rate vs control)” value (shortened to “effect … (metabolite generation rate vs control)”) ([1]; 100 μM EGFR TKI, RLMs) is given as “significantly inhibited” and the “inhibition pattern with rivaroxaban as probe substrate” value [2] is given as “atypical inhibitory kinetics”. The “inhibition of rivaroxaban hydroxylation by CYP2J2” value [2] was “concentration-dependent inhibition” and the Ki [3] was 3.24 µM.
For `CC[C@H]1OC(=O)[C@H](C)[C@@H](O[C@H]2C[C@@](C)(OC)[C@@H](O)[C@H](C)O2)[C@H](C)[C@@H](O[C@@H]2O[C@H](C)C[C@H](N(C)C)[C@H]2O)[C@](C)(OC)C[C@@H](C)C(=O)[C@H](C)[C@@H](O)[C@]1(C)O` [clarithromycin], the “increase in the AUC value for rivaroxaban” value [4] is given as “two-fold increase”.
In the case of `COc1cc2ncnc(Nc3ccc(F)c(Cl)c3)c2cc1NC(=O)/C=C/CN1CCCCC1` [dacomitinib], the “effect … (metabolite generation rate vs control)” value ([1]; 100 μM EGFR TKI, RLMs) is reported as “significantly inhibited”.
In the case of `C#Cc1cccc(Nc2ncnc3cc(OCCOC)c(OCCOC)cc23)c1` [erlotinib], the IC50 [5] is given as less than 10 µM.
For `COc1cc2ncnc(Nc3ccc(F)c(Cl)c3)c2cc1OCCCN1CCOCC1` [gefitinib, Gefitinib], the “inhibition of CYP3A4-mediated rivaroxaban metabolism” value [6] is given as “potently inhibited”.
In the case of `Cc1ccc(NC(=O)c2ccc(CN3CCN(C)CC3)cc2)cc1Nc1nccc(-c2cccnc2)n1` [imatinib], the “increase of rivaroxaban AUC” value [7] is given as 119.96% and the “increase of rivaroxaban Cmax” value [7] is given as 90.43%.
In the case of `CS(=O)(=O)CCNCc1ccc(-c2ccc3ncnc(Nc4ccc(OCc5cccc(F)c5)c(Cl)c4)c3c2)o1` [lapatinib], the “effect … (metabolite generation rate vs control)” value [1] is reported as “significantly inhibited”.
With `CCOc1cc2ncc(C#N)c(Nc3ccc(OCc4ccccn4)c(Cl)c3)c2cc1NC(=O)/C=C/CN(C)C` [neratinib] the “effect … (metabolite generation rate vs control)” value [1] was “significantly inhibited”.
In the case of `C=CC(=O)Nc1cc(Nc2nccc(-c3cn(C)c4ccccc34)n2)c(OC)cc1N(C)CCN(C)C` [osimertinib], the “inhibition pattern with rivaroxaban as probe substrate” value [2] is given as “competitive inhibition” and the “inhibition of rivaroxaban hydroxylation by CYP2J2” value [2] is given as “concentration-dependent inhibition”.
In the case of `CCN(CC)CCNC(=O)c1c(C)[nH]c(/C=C2\C(=O)Nc3ccc(F)cc32)c1C` [sunitinib], the “reduction in exposure to rivaroxaban in vivo” value [7] is listed as 62.32%.
